Target: human neprilysin (EC 3.4.24.11; NEP) (Homo sapiens (Human), UniProt P08473)
Experiment: In vitro enzyme inhibition assay at human NEP (fluorogenic peptide substrate)
Assay type: biochemical
Settings: pKi values at human NEP, recombinant human NEP
Protocol: In Vitro Assays for the Quantitation of Inhibitor Potencies at Human and Rat NEP, and Human ACE
The inhibitory activities of compounds at human and rat neprilysin (EC 3.4.24.11; NEP) and human angiotensin converting enzyme (ACE) were determined using in vitro assays as described below.
Recombinant human NEP and recombinant human ACE were obtained commercially (R&D Systems, Minneapolis, Minn., catalog numbers 1182-ZN and 929-ZN, respectively). The fluorogenic peptide substrate Mca-D-Arg-Arg-Leu-Dap-(Dnp)-OH (Medeiros et al. (1997) Braz. J. Med. Biol. Res. 30:1157-62; Anaspec, San Jose, Calif.) and Abz-Phe-Arg-Lys(Dnp)-Pro-OH (Araujo et al. (2000) Biochemistry 39:8519-8525; Bachem, Torrance, Calif.) were used in the NEP and ACE assays respectively.
The assays were performed in 384-well white opaque plates at 37° C. using the fluorogenic peptide substrates at a concentration of 10 μM in Assay Buffer (NEP: 50 mM HEPES, pH 7.5, 100 mM NaCl, 0.01% polyethylene glycol sorbitan monolaurate (Tween-20), 10 μM ZnSO4; ACE: 50 mM HEPES, pH 7.5, 100 mM NaCl, 0.01% Tween-20, 1 μM ZnSO4).
Test compounds were assayed over the range of concentrations from 10 μM to pM. Test compounds were added to the enzymes and incubated for 30 minute at 37° C. prior to initiating the reaction by the addition of substrate. Reactions were terminated after 20 minutes of incubation at 37° C. by the addition of glacial acetic acid to a final concentration of 3.6% (v/v).
Plates were read on a fluorometer with excitation and emission wavelengths set to 320 nm and 405 nm, respectively. Inhibition constants were obtained by nonlinear regression of the data using the equation (GraphPad Software, Inc., San Diego, Calif.): v=v0/[1+(I/K′)] where v is the reaction rate, v0 is the uninhibited reaction rate, I is the inhibitor concentration and K′ is the apparent inhibition constant.
Compounds of the invention were tested in this assay and found to have pKi values at human NEP as follows.

human neprilysin (EC 3.4.24.11; NEP), sequence (P08473 52-750): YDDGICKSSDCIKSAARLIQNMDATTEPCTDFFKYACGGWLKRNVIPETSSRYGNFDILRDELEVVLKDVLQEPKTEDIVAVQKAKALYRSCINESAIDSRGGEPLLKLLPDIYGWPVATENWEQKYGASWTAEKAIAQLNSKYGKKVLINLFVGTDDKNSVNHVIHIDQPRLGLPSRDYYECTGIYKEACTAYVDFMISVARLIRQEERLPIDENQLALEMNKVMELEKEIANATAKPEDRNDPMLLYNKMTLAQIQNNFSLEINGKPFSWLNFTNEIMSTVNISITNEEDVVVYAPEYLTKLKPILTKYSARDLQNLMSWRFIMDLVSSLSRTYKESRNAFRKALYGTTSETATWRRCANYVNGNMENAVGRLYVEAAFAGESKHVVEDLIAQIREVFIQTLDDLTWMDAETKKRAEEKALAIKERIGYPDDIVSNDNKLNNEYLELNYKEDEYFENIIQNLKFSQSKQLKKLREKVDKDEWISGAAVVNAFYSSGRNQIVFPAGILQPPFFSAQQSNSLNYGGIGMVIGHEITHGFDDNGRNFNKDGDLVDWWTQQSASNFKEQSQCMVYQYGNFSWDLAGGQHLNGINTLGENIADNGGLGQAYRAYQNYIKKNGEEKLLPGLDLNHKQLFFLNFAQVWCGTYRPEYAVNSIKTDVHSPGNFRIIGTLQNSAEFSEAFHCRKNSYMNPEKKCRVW

pKi	Ki [nM]	SMILES
	1.26 to 10	O=C(N[C@H](Cc1ccc(-c2ccccc2)cc1)C[C@@H](O)C(=O)O)c1cnn[nH]1 [Example 10-2, (2R,4R)-5-Biphenyl-4-yl-2-hydroxy-4-[(3H-[1,2,3]triazole-4-carbonyl)amino]pentanoic acid]
≥9.0		O=C(N[C@H](Cc1ccc(-c2ccccc2)cc1)C[C@@H](O)C(=O)O)c1cn(O)nn1 [Example 10-3, (2R,4R)-5-Biphenyl-4-yl-2-hydroxy-4-[(1-hydroxy-1H-[1,2,3]triazole-4-carbonyl)-amino]-pentanoic acid]
	12.6 to 100	O=C(N[C@H](Cc1ccc(-c2ccccc2)cc1)CC(O)C(=O)O)c1nc[nH]n1 (stereo partly drawn) [Example 10-6, (R)-5-Biphenyl-4-yl-2-hydroxy-4-[(1H-[1,2,4]triazole-3-carbonyl)amino]pentanoic acid]
	12.6 to 100	Cc1nc(C(=O)N[C@H](Cc2ccc(-c3ccccc3)cc2)CC(O)C(=O)O)nn1-c1ccc(Cl)cc1 (stereo partly drawn) [Example 10-7, (R)-5-Biphenyl-4-yl-4-{[1-(4-chlorophenyl)-5-methyl-1H-[1,2,4]triazole-3-carbonyl]-amino}-2-hydroxypentanoic acid]
	1.26 to 10	O=C(N[C@H](Cc1ccc(-c2ccccc2)cc1)C[C@@H](O)C(=O)O)c1n[nH]c(O)n1 [Example 10-9, (2R,4R)-5-Biphenyl-4-yl-2-hydroxy-4-[(5-hydroxy-1H-[1,2,4]triazole-3-carbonyl)amino]-pentanoic acid]
	1.26 to 10	O=C(N[C@H](Cc1ccc(-c2ccccc2)cc1)CC(O)C(=O)O)c1nnc(-c2ccccn2)[nH]1 (stereo partly drawn) [Example 10-10, (R)-5-Biphenyl-4-yl-2-hydroxy-4-[(5-pyridin-2-yl-4H-[1,2,4]triazole-3-carbonyl)amino]pentanoic acid]
	12.6 to 100	Cc1n[nH]c(C(=O)N[C@H](Cc2ccc(-c3ccccc3)cc2)CC(O)C(=O)O)n1 (stereo partly drawn) [Example 10-11, (R)-5-Biphenyl-4-yl-2-hydroxy-4-[(5-methyl-2H-[1,2,4]triazole-3-carbonyl)amino]pentanoic acid]
	1.26 to 10	O=C(N[C@H](Cc1ccc(-c2ccccc2)cc1)C[C@@H](O)C(=O)O)c1nc(Cl)n[nH]1 [Example 10-12, (2R,4R)-5-Biphenyl-4-yl-4-[(5-chloro-2H-[1,2,4]triazole-3-carbonyl)amino]-2-hydroxypentanoic acid]
	1.26 to 10	O=C(O)c1cccc(Cn2nnc3cc(C(=O)N[C@H](Cc4ccc(-c5ccccc5)cc4)CC(O)C(=O)O)ccc32)c1 (stereo partly drawn) [Example 11-1, 3-[5-((R)-1-Biphenyl-4-ylmethyl-3-carboxy-3-hydroxypropylcarbamoyl)-benzotriazol-1-ylmethyl]-benzoic acid]
	12.6 to 100	O=C(O)c1ccc(Cn2nnc3cc(C(=O)N[C@H](Cc4ccc(-c5ccccc5)cc4)C[C@H](O)C(=O)O)ccc32)cc1 [Example 11-2, 4-[5-((1R,3S)-1-Biphenyl-4-ylmethyl-3-carboxy-3-hydroxypropylcarbamoyl)-benzotriazol-1-ylmethyl]-benzoic acid]
	1.26 to 10	O=C(N[C@H](Cc1ccc(-c2ccccc2)cc1)CC(O)C(=O)O)c1ccc2[nH]nnc2c1 (stereo partly drawn) [Example 11-3, (R)-4-[(1H-Benzotriazole-5-carbonyl)amino]-5-biphenyl-4-yl-2-hydroxypentanoic acid]
	1.26 to 10	O=C(N[C@H](Cc1ccc(-c2ccccc2)cc1)CC(O)C(=O)O)c1cc(F)c2[nH]nnc2c1 (stereo partly drawn) [Example 11-4, (R)-5-Biphenyl-4-yl-4-[(7-fluoro-1H-benzotriazole-5-carbonyl)amino]-2-hydroxy-pentanoic acid]
	1.26 to 10	Cc1cc(C(=O)N[C@H](Cc2ccc(-c3ccccc3)cc2)CC(O)C(=O)O)cc2[nH]nnc12 (stereo partly drawn) [Example 11-6, (R)-5-Biphenyl-4-yl-2-hydroxy-4-[(7-methyl-3H-benzotriazole-5-carbonyl)amino]pentanoic acid]
	1.26 to 10	O=C(N[C@H](Cc1ccc(-c2ccccc2)cc1)CC(O)C(=O)O)c1ccc2[nH]nnc2c1Cl (stereo partly drawn) [Example 11-7, (R)-5-Biphenyl-4-yl-4-[(4-chloro-1H-benzotriazole-5-carbonyl)amino]-2-hydroxy-pentanoic acid]

More lines, now with the values behind:

SMILES	pKi	Ki [nM]
CC(=O)c1cc(C(=O)N[C@H](Cc2ccc(-c3ccccc3)cc2)C[C@@H](O)C(=O)O)[nH]n1 [Example 1-B, (2R,4R)-4-[(5-Acetyl-2H-pyrazole-3-carbonyl)amino]-5-biphenyl-4-yl-2-hydroxypentanoic Acid]	≥9.0	
O=C(N[C@H](Cc1ccc(-c2ccccc2)cc1)C[C@H](O)C(=O)O)c1cc(C(=O)O)[nH]n1 [Example 2-C, 5-((1R,3S)-1-Biphenyl-4-ylmethyl-3-carboxy-3-hydroxypropylcarbamoyl)-2H-pyrazole-3-carboxylic Acid]	≥9.0	
O=C(N[C@H](Cc1ccc(-c2ccccc2)cc1)C[C@@H](O)C(=O)O)c1cc(C(=O)O)[nH]n1 [Example 2-D, 5-((1R,3R)-1-Biphenyl-4-ylmethyl-3-carboxy-3-hydroxypropylcarbamoyl)-2H-pyrazole-3-carboxylic Acid]	≥9.0	
COCCN(C)C(=O)c1cc(C(=O)N[C@H](Cc2ccc(-c3ccccc3)cc2)C[C@H](O)C(=O)O)[nH]n1 [Example 3-C, (2S,4R)-5-Biphenyl-4-yl-2-hydroxy-4-({5-[(2-methoxyethyl)methylcarbamoyl]-2H-pyrazole-3-carbonyl}amino)pentanoic Acid]		1.26 to 10
COCCN(C)C(=O)c1cc(C(=O)N[C@H](Cc2ccc(-c3ccccc3)cc2)C[C@@H](O)C(=O)O)[nH]n1 [Example 3-D, (2R,4R)-5-Biphenyl-4-yl-2-hydroxy-4-({5-[(2-methoxyethyl)methylcarbamoyl]-2H-pyrazole-3-carbonyl}amino)pentanoic Acid]	≥9.0	
O=C(N[C@H](Cc1ccc(-c2ccccc2)cc1)C[C@@H](O)C(=O)O)c1cc(C(=O)N2CCC2)n[nH]1 [Example 4-B, (2R,4R)-4-{[5-(Azetidine-1-carbonyl)-2H-pyrazole-3-carbonyl]amino}-5-biphenyl-4-yl-2-hydroxy-pentanoic acid]	≥9.0	
O=C(N[C@H](Cc1ccc(-c2ccccc2)cc1)C[C@@H](O)C(=O)O)c1cc(C(=O)N2CCCC2)n[nH]1 [Example 5-B, (2R,4R)-5-Biphenyl-4-yl-2-hydroxy-4-{[5-(pyrrolidine-1-carbonyl)-2H-pyrazole-3-carbonyl]-amino}pentanoic Acid]	≥9.0	
O=C(N[C@H](Cc1ccc(-c2ccccc2)cc1)C[C@@H](O)C(=O)O)c1cnc(O)nc1 [Example 6-B, (2R,4R)-5-Biphenyl-4-yl-2-hydroxy-4-[(2-hydroxypyrimidine-5-carbonyl)amino]pentanoic Acid]	≥9.0	
O=C(N[C@H](Cc1ccc(-c2ccccc2)cc1)C[C@@H](O)C(=O)O)c1cc(O)no1 [Example 7-B, (2R,4R)-5-Biphenyl-4-yl-2-hydroxy-4-[(3-hydroxyisoxazole-5-carbonyl)amino]pentanoic Acid]	≥9.0	
CC(C)(O)c1cc(C(=O)N[C@H](Cc2ccc(-c3ccccc3)cc2)C[C@@H](O)C(=O)O)n[nH]1 [Example 8-B, (2R,4R)-5-Biphenyl-4-yl-2-hydroxy-4-{[5-(1-hydroxy-1-methylethyl)-1H-pyrazole-3-carbonyl]amino}pentanoic acid]	≥9.0	
NC(=O)[C@H](O)C[C@@H](Cc1ccc(-c2ccccc2)cc1)NC(=O)c1cnc(O)nc1 [Example 9, 2-Hydroxypyrimidine-5-carboxylic acid ((1R,3R)-1-biphenyl-4-ylmethyl-3-carbamoyl-3-hydroxypropyl)amide]		12.6 to 100
